Measurements reported in patent US20150065709A1, “Aminoquinazoline Derivative And Use Thereof In Preparing Anti-Malignant Tumor Medicament” (METABOMICS, INC, priority 2012, published 2015).

Legend:
[1] = Long-term toxicity experiment (28 days) in rats; assay type: in vivo; settings: for toxicity reaction: po
Method: Experiment Animals: rats, male, 6-8 weeks of age, body weight: 180-250 g; dogs, male, about 24 months, body weight: 7-10 kg.
Preparation of sample: in rat's experiments the mixed formulation powder of the compound Ie was formulated into 0.1, 0.3 and 1 mg/mL homogeneous suspension for use; administration route: oral administration; […]. In dog's experiments the tablets of compound Ie were fed to dogs. […].
Sample collection: blood was collected at the time points of 1, 10, 20 and 28 days respectively, about 120-200 μL whole blood was collected from 3 animals at each time point. Blood was collected at 1 h, 4 h, 8 h and 24 h after administration.
Sample analysis: the collected samples were detected by LC-MS/MS, and the instrument model was SHIMADZU20 A-API4000.
Pharmacokinetic data analysis: the obtained plasma concentration data were fitted and calculated using WinNolin according to non-compartment model.

[2] = test system: H1975 (non-small cell lung cancer); experiment: Transplanted tumor in nude mice, further H1975 model; assay type: in vivo, nude mice (BALB/c); settings: 6.7, 13.4, 20.1 mg/kg/day orally for 21 days
Excerpt: Furthermore, more pharmacological models of tumor cell lines in nude mice were utilized to validate the inhibitory effects of compound Ie. The test method was specifically described as follows: H1975, A549, HCC827, A431, N87, MDA-MD-468 and CAL27 tumor cells respectively were inoculated into nude mice (BALB/c, male, 5-6 weeks of age), and when the mean tumor volume reaches 150 mm^3 mice was randomized into groups. The H1975 tumor model in nude mice includes one positive control group and three dosage groups of compound Ie (6.7 mg/kg/day, 13.4 mg/kg/day, and 20.1 mg/kg/day. The A549 tumor model in nude mice includes one positive control group, two dosage groups of compound Ie (10 mg/kg/day, 20 mg/kg/day), and one dosage group of Docetaxel (12 mg/kg/day). The HCC827 tumor model in nude mice includes one positive control group, two dosage groups of compound Ie (0.5 mg/kg/day, 2.5 mg/kg/day), and one dosage group of Erlotinib (12.5 mg/kg/day). The A431 tumor model in nude mice includes one positive control group, two dosage groups of compound Ie (2.5 mg/kg/day, 5 mg/kg/day), and one dosage group of Erlotinib (50 mg/kg/day). […] The tumor size and body weight of nude mice were recorded twice weekly from the first day of administration. The tumor volume was calculated using formula (1×w^2), wherein 1 and w respectively represents the maximum and minimum size in each measurement. […]

[3] = test system: BT474; experiment: Inhibition of tumor cells, WST method; assay type: cell-based; settings: Homo sapiens, BT-474, 48 hours
Method: (§1) (1) Compounds: in vitro studies the test compounds was dissolved in 100% DMSO and diluted until the final concentration of DMSO was 0.1%. The 0.1% (v/v) DMSO was added into culture medium as solvent control. 9 concentration gradients were tested and each gradient was repeated twice. (2) Tumor cell lines: the tumor cell lines were cultivated in RPMI10 culture medium containing 10% fetal calf serum in incubator at 37° C. in a 5% CO2 air incubator. The tested tumor cell lines were: BT474, MDA-MB-231, SK-Br-3, A431, H292, H1975, HCC827, A549, H1650 and H1734. (3) MTS method: cells were seeded into 96-well plate to give a density of about 3000 cells per well, and incubated overnight in a humidified incubator at 37° C. In the next day, the test compounds were added to the wells and further incubated for 72 hours. The cell activity was detected using MTS. IC50 was calculated (the concentration of a compound that is required for 50% inhibition of the cell growth versus the DMSO control group, using nonlinear regression analysis of software GraphPad Prism). […] In a 96-well plate, each test compound was tested at 9 dosage concentrations and each dosage was made in triplicate. Samples were added in 100 μL/well. Cell control and negative control wells contained diluents instead of compounds. Except the negative control well, 100 μL cell suspension of complete medium was added into each test well, wherein corresponding cell numbers were included to assure that the cells in cell control well just cover the bottom of the well as the required incubation time was reached. The plate was incubated in a CO2 incubator at 37° C. for 48 hours. The liquid in test wells was removed by pipetting. 100 μL CCK-8 (Cell counting Kit-8, purchased from DOJINDO Molecular Technologies) detection liquid (containing 10% CCK-8, 5% FBS corresponding medium) was added into each test well, then the plate was incubated in a CO2 incubator under at 37° C. for 3 hours. OD value was detected by ELIASA at A450 nm. Cell viability percentage (%)=(O.D. test compound-O.D. blank)/(O.D. control-O.D. blank)×100. Mean value was calculated for each 3 repeated wells, and IC50 was calculated using nonlinear regression (fitted curve) data analysis method.
(§2) Parts of test results of compound Ie listed in the table 3 and all of the test results listed in the table 4 were obtained by WST method.

[4] = test system: CAL27; experiment: Inhibition of tumor cells, WST method; assay type: cell-based; settings: Homo sapiens, CAL-27, Head and Neck
Method: as §1, §2

[5] = test system: A549; experiment: Inhibition of tumor cells, WST method; assay type: cell-based; settings: Homo sapiens, 48 hours
Method: as §1, §2

[6] = test system: H1650; experiment: Inhibition of tumor cells, WST method; assay type: cell-based; settings: Homo sapiens, NCI-H1650, 48 hours
Method: as §1, §2

[7] = test system: ZR-75-30; experiment: Inhibition of tumor cells, WST method; assay type: cell-based; settings: Homo sapiens, Breast
Method: as §1, §2

[8] = test system: NCI-N87; experiment: Inhibition of tumor cells, WST method; assay type: cell-based; settings: Homo sapiens, Stomach
Method: as §1, §2

[9] = test system: H292; experiment: Inhibition of tumor cells, WST method; assay type: cell-based; settings: Homo sapiens, NCI-H292, 48 hours
Method: as §1, §2

[10] = test system: NUGC-3; experiment: Inhibition of tumor cells, WST method; assay type: cell-based; settings: Homo sapiens, Stomach
Method: as §1, §2

[11] = test system: ACHN; experiment: Inhibition of tumor cells, WST method; assay type: cell-based; settings: Homo sapiens, Kidney
Method: as §1, §2

[12] = test system: CW-2; experiment: Inhibition of tumor cells, WST method; assay type: cell-based; settings: Homo sapiens, Colon
Method: as §1, §2

[13] = test system: SK-Br-3; experiment: Inhibition of tumor cells, WST method; assay type: cell-based; settings: Homo sapiens, 48 hours
Method: as §1, §2

CN(C)C/C=C/C(=O)Nc1cc2c(Nc3ccc(F)c(Cl)c3)ncnc2cc1OC(F)F [Compound Ie]
reversibility of toxicity reaction after drug withdrawal ([1]; rat, in vivo): reversible | toxicity reaction ([1]; rat, in vivo, 1 mg/kg): no toxicity reaction | toxicity reaction ([1]; rat, in vivo, 3 mg/kg): no toxicity reaction | AUC relative to Afatinib in the same dosage ([1]; rats, oral, 28 days): about 5 times | time after drug withdrawal until weight close to control group ([1]; rats, 1, 3 and 10 mg/kg groups): 5 to 6 days | weight recovery after drug withdrawal ([1]; rats, compound Ie 1, 3 and 10 mg/kg groups): regain weight very quickly | inhibitory and therapeutic effects on H1975 tumor model [2]: strong inhibitory effects and therapeutic effects | IC50 [3]: 0.088 µM | IC50 [4]: 0.002 µM | IC50 [5]: 0.204 µM | IC50 [6]: 0.702 µM | IC50 [7]: 0.683 µM | IC50 [8]: 0.001 µM | IC50 [9]: 0.181 µM | IC50 [10]: 0.055 µM | IC50 [11]: 0.107 µM | IC50 [12]: 0.036 µM | IC50 [13]: 0.028 µM
